Holding throughout (format): functional
Assay [1] relates to P388. Kind of assay: Cytotoxicity against mouse P388 cells xenografted in BDF1 mouse at 12.5 mg/kg relative to control.
For assay [2], the system named is P388. The assay can be described thus: Cytotoxicity against mouse P388 cells xenografted in BDF1 mouse at 6 mg/kg relative to control.
The nature of assay [3]: Growth inhibition of mouse EAC cells xenografted in CF1 mouse at 3 mg/kg/day, ip. The note with it: Ehrlich, route intraperitoneal.
Assay [4] concerns P388. Kind of assay: Cytotoxicity against mouse P388 cells xenografted in CDF1 mouse at 16 mg/kg relative to control.
Assay [5] has as its system P388. Kind of assay: Cytotoxicity against mouse P388 cells xenografted in CDF1 mouse at 10 mg/kg relative to control.
For assay [6], the system named is P388. Kind of assay: Cytotoxicity against mouse P388 cells xenografted in BDF1 mouse at 16 mg/kg relative to control.
In assay [7] the test system is P388. The assay can be described thus: Cytotoxicity against mouse P388 cells xenografted in BDF1 mouse at 8 mg/kg relative to control.
In assay [8] the test system is P388. Kind of assay: Cytotoxicity against mouse P388 cells xenografted in BDF1 mouse at 4 mg/kg relative to control.
Assay [9] concerns P388. Kind of assay: Cytotoxicity against mouse P388 cells xenografted in CDF1 mouse at 2 mg/kg relative to control.
Assay [10] relates to P388. The assay can be described thus: Cytotoxicity against mouse P388 cells xenografted in CDF1 mouse at 1 mg/kg relative to control.
The subject of assay [11] is P388. Kind of assay: Cytotoxicity against mouse P388 cells xenografted in CDF1 mouse at 4 mg/kg relative to control.

SMILES strings stand for the structures.

Among the data in ChEMBL document CHEMBL1151373, “Antitumor agents. 49 tricin, kaempferol-3-O-beta-D-glucopyranoside and (+)-nortrachelogenin, antileukemic principles from Wikstroemia indica” (1981) are T/C and inhibition in vivo values, retold here.

By T/C is commonly meant the result in the treated group divided by that in the control group, in per cent. For `O=c1c(O[C@@H]2O[C@H](CO)[C@@H](O)[C@H](O)[C@H]2O)c(-c2ccc(O)cc2)oc2cc(O)cc(O)c12` [ASTRAGALIN], the T/C is recorded as 130% in assay [1] and 122% in [2].

Usually inhibition in vivo stands for the share of the control response that was lost under treatment. Low values mean a response near the control, high ones a response far below the control. Turning to `COc1cc2cc(Oc3ccc4ccc(=O)oc4c3)c(=O)oc2cc1O` [DAPHNORETIN], the inhibition in vivo at 3 mg/kg/day in assay [3] was 97%.

`COc1cc(-c2cc(=O)c3c(O)cc(O)cc3o2)cc(OC)c1O` [TRICIN]: the T/C in [1] was 174%; in assay [2] it was 133%.

Turning to `COc1cc(C[C@@H]2COC(=O)[C@@]2(O)Cc2ccc(O)c(OC)c2)ccc1O` [WIKSTROMOL], the T/C in assay [4] amounted to 154%; in assay [5] it was 146%; in assay [6], 130%; in [7], 130%; in [8], 122%; in [9], 141%. Moreover, the figures for the T/C in [10] and in [11] were 130% and 137%, respectively.
